The values that follow come from US9598365B2, “Method for synthesizing cycloalkanyl[b]indoles, cycloalkanyl[b]benzofurans, cycloalkanyl[b]benzothiophenes, compounds and methods of use” (Trustees of Dartmouth College, priority 2012, dated 2017).

As a reminder, the EC50 is the concentration giving half of the maximal effect.

The test system of one assay is Insulin Secretion. Nature of the assay: Insulin secretion, Secretion Hi Gluc. Format: cell-based. The text has this: (§1) Selected compounds of this invention were screened for K-Ras Wnt synthetic lethal, anti-angiogenic activity, Wnt pathway modulatory activity, insulin and GLP-1 secretion modulatory activity, GPR119 receptor agonist activity, mGlu2R antagonist activity, CGRP receptor antagonist activity, Apelin receptor agonist activity and hexokinase 2 inhibitory activity using the PD^2 and TD^2 Screening Panel (Eli Lilly & Company). See Lee, et al. (2011) J. Biomol. Screen. 16:588-602.

A further assay deals with GIP. Nature of the assay: Plasma GIP response to oral compound in mice. The class given is in vivo, Mice (male C57BL/6). The conditions noted are these: oral 100 mg/kg, plasma 30 minutes post-dose. As to the method:
(§2) Mice (male C57BL/6, 8-10 weeks of age) were fasted overnight by being placed in a clean cage without food. The next day, all mice were weighed and assigned to groups of similar body weights. Test compounds were formulated in 1% HEC, 0.25% TWEEN 80, 0.05% antifoam (vehicle control). Compounds 11ls and llu were orally dosed (100 mg/kg) and cardiac sticks were done on CO2 euthanized mice at 30 minutes post-dose. Blood (500+μL whole blood) from the cardiac stick was placed in chilled EDTA-plasma tubes with inhibitors, DPP4 inhibitor (5 μL/500 μL blood) and aprotinin (bovine lung, […]/500 μL blood), and stored on ice. Plasma was separated by centrifugation and aliquoted for compound exposure to total GIP and GLP-1 (X-36 amide). Plates for compound exposure were analyzed for absorption, distribution, metabolism, and excretion, while conventional kits were used for GLP-1 (x-36) amide (Mesoscale) and GIP (Millipore) analyses.

A further assay has as its system Co1o320. Nature of the assay: K-Ras Wnt synthetic lethal, Co1o320 KrasSL. The conditions noted are these: read-out: Co1o320 KrasSL % Inhibit. Format: cell-based.
From the text: as §1

A further assay has as its system hNCI-H716. Nature of the assay: hNCI-H716 GLP-1 secretion. The class given is cell-based.
In a further assay the target is T1, hHK2 (Homo sapiens, UniProt P52789).
T1 sequence (P52789 1-917): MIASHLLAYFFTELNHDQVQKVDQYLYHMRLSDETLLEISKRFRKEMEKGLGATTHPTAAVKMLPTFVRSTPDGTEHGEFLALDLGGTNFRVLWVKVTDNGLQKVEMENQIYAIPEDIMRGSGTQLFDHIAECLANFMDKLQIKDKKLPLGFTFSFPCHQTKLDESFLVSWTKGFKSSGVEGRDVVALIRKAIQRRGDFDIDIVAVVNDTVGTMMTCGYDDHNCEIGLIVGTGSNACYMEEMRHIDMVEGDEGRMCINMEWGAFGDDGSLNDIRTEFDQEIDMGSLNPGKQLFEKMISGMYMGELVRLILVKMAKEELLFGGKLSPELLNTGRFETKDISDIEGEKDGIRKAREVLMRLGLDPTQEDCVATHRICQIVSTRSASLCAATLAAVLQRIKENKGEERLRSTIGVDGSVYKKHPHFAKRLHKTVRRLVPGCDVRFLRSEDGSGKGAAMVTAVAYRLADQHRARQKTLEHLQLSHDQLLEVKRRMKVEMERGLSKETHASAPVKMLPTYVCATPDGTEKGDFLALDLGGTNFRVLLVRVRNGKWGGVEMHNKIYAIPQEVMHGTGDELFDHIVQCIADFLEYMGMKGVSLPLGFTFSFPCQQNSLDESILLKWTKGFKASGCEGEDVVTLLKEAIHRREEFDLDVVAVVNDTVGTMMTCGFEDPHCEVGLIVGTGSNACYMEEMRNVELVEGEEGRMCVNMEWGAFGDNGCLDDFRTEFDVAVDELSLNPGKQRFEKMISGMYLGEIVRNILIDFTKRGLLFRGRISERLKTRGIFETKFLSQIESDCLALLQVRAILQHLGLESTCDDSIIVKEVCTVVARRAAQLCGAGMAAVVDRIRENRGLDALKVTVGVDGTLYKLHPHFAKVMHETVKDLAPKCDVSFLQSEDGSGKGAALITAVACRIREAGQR
Nature of the assay: Hexokinase 2 inhibitor, hHK2 ADP-FP. The class given is biochemical.
From the text: as §1

For another assay, the target named is T2, hApelin (Homo sapiens, UniProt P35414).
T2 sequence (P35414 1-380): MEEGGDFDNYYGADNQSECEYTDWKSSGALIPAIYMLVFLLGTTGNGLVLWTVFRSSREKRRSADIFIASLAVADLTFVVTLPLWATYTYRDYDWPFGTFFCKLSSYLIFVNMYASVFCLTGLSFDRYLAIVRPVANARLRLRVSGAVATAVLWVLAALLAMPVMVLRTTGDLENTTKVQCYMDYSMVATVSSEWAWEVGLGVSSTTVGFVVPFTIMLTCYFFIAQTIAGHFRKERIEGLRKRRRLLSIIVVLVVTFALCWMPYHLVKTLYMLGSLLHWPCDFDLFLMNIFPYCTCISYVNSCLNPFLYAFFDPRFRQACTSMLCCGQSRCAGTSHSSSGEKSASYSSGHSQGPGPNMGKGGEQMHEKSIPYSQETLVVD
Nature of the assay: Apelin receptor agonist, hApelin agonism. Format: cell-based. The conditions noted are these: @ 30 μM.
From the text: as §1

Another assay concerns RKO. Nature of the assay: K-Ras Wnt synthetic lethal, RKO KrasSL. The class given is cell-based. The conditions noted are these: Homo sapiens, average of three independent experiments, read-out: RKO KrasSL % Inhibit.
From the text: as §1

For another assay, the target named is hCGRP1 (Homo sapiens, UniProt O60894+Q16602). Nature of the assay: CGRP receptor antagonist, hCGRP1 antagonism. Format: cell-based.
hCGRP1, sequence (Q16602 23-461): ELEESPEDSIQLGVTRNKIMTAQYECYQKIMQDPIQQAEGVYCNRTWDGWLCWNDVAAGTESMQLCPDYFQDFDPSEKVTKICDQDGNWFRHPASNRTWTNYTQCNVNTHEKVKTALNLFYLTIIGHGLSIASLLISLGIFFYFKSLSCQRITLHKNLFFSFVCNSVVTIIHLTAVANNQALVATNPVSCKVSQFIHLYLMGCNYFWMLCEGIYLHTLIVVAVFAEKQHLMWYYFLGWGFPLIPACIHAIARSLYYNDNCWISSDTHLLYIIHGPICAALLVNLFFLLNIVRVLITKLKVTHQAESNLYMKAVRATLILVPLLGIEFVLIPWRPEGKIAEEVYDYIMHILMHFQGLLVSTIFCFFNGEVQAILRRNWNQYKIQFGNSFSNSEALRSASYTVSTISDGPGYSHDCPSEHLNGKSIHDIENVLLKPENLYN
hCGRP1, sequence (O60894 27-148 partner): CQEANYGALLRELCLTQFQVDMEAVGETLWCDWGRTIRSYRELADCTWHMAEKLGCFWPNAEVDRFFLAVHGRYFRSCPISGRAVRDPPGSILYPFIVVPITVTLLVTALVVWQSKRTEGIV
From the text: as §1

Another assay relates to SNU-C1. Nature of the assay: K-Ras Wnt synthetic lethal, SNU-C1 KrasSL. Format: cell-based. The conditions noted are these: Homo sapiens, read-out: SNU-C1 KrasSL % Inhibit.
From the text: as §1

Another assay concerns GLP-1 (X-36 amide). Nature of the assay: Plasma GLP-1 response to oral compound in mice. The class given is in vivo, Mice (male C57BL/6). The conditions noted are these: oral 100 mg/kg, plasma 30 minutes post-dose. On the procedure:
as §2

Several values for one entry are separate records, joined by “and”; a condition that tells them apart may be missing. Equal values may be shown once. Read-outs that look alike come from different tables or passages of the source.

With `CC1(C)c2c([nH]c3ccc(Cl)cc23)C2C=CC1C2` (centres unmarked) [Compound 11s], the “Secretion Hi Gluc % Stimulation” value was −1.2% with Insulin Secretion (@ 2 μM) and 15.8% in the assay with Insulin Secretion (@ 10 μM). In addition, in the assay with GIP, the “Avg. GIP (pg/mL) ±SEM” value is reported as 23.42 ± 7.44 pg/mL. In addition, the inhibition at 0.2 µM in the assay on Co1o320 (@ 0.2 μM) was 33.3%; in the assay on RKO (@ 0.2 μM), -2.8%; in the assay with SNU-C1 (@ 0.2 μM), 15.7%. For the same compound, the inhibition at 2 µM with Co1o320 (@ 2 μM) amounted to 15.8%; with RKO (@ 2 μM), 14.4%; in the assay on SNU-C1 (@ 2 μM), 5.5%. Further, the inhibition at 20 µM in the assay with Co1o320 (@ 20 μM) is 150%; against hHK2, 5.5%; in the assay with RKO (@ 20 μM), 102%; with SNU-C1 (@ 20 μM) it was 106%. Moreover, in the assay on hNCI-H716 (2 μM, GLP-1 secretion, single point, read-out: Primary SP hNCI (% Stim.)), the activation at 2 µM was -1.7%. In addition, in the assay with hNCI-H716 (20 μM, GLP-1 secretion, single point, read-out: Primary SP hNCI (% Stim.)), the activation at 20 µM is 108%. The “hNCI GLP-1 Secretion % Stimulation” value is reported as −1.7% in the assay with hNCI-H716 (@ 2 μM) and 108% with hNCI-H716 (@ 20 μM). Besides, the EC50 with hNCI-H716 (GLP-1 secretion, concentration response curve, read-out: Primary CRC (EC50, μM) hNCI) is 34.8 µM and 33.5 µM and 23.2 µM and > 40 µM; in the assay on hNCI-H716 (average of three independent experiments, read-out: hNCI GLP-1 Secretion EC50), 34.8 µM; in the assay with hNCI-H716 (secretion and/or production of GLP-1, read-out: EC50 values (Table 6)), 35 µM. Moreover, at hApelin, the “hApelin agonism % Stimulation” value is listed as −46.2%. Also, the inhibition at 30 µM on hCGRP1 is 77.1%. Further, the “Avg. GLP-1 (pg/mL) ±SEM” value with GLP-1 (X-36 amide) was determined as 5.52 ± 1.18 pg/mL.
